Test results from patent publication US8496927B2, “CD20 negatively converted B-cell malignant lymphoma cell line and utilization thereof” (National University Corporation Nagoya University, priority 2006, dated 2013).

Experiments:
[1] = system: DNMT1 (DNA methyltransferase 1); experiment: DNMT1 expression in RRBL1 cells by western blotting; format: cell-based, human; conditions: day 1 after Aza injection
Experimental: (§1) Subsequently, changes with time regarding CD20 mRNA expression and CD20 protein expression were examined (FIG. 7B) Aza was injected to a culture solution on day 0, and cultured at 37° C. for 24 hours (day 1). Then, the cells were washed and further cultured for 1 to 6 days (day 2 to day 7). RNA and protein were extracted from the cells after culturing, and subjected to analyses by western blotting (using anti-CD20 antibody, anti-IRF4 antibody, anti-PU.1 antibody, anti-DNMT1 antibody, and […]) and RT-PCR.
(§2) IRF4 and Pu.1 are transcriptional factors that have been reported to bind to a CD20 gene promoter. […] DNMT1 (DNA methyltransferase 1) has reported to be decomposed by Aza.

[2] = system: CD20 mRNA; experiment: CD20 mRNA expression in RRBL1 cells by RT-PCR; format: cell-based, human; conditions: for induction of CD20 mRNA: added to RRBL1, analyzed with elapse of time (summary)
Experimental: (§3) 5-aza-2′-deoxycytidine (SIGMA, hereinafter abbreviated as “Aza”) was injected to a culture solution of RRBL1 cells, and the cells were washed after 24 hours. After culturing for further 2 days, RNA and the whole-cell lysate was extracted from the cells, and subjected to analyses by RT-PCR and western blotting. As a result, CD20 mRNA expression increased after the Aza treatment (FIG. 7A, RT, lane 2). In the western blotting analysis, the CD20 protein expression was observed after the Aza treatment (FIG. 7A, IB lane 2).
as §1

[3] = system: IRF4 and Pu.1; experiment: IRF4 and Pu.1 expression in RRBL1 cells by western blotting; format: cell-based, human; conditions: time course after Aza injection
Experimental: as §1, §2

[4] = system: CD20 protein; experiment: CD20 protein expression in RRBL1 cells by western blotting; format: cell-based, human; conditions: for induction of CD20 protein: added to RRBL1, analyzed with elapse of time (summary)
Experimental: as §3, §1
Aza and TSA (Trichostatin: histone deacetylase inhibitor) were injected singly or in combination to a culture supernatant of RRBL1 cells. The cells were washed after one day from Aza injection. After further cultured for 2 days, protein was extracted from the cells. In the TSA injected group, protein was extracted from the cells at the point of 24 hours from TSA injection. For the group injected in combination use, Aza was first injected and cultured for 1 day. The cells after washed were cultured for 1 day, then TSA was injected thereto, and further, the cells were dissolved after the elapse of one day to extract protein. Thus obtained each sample was subjected to SDS-PAGE, and western blotting using an anti-CD20 antibody and an anti-GAPDH antibody was then performed.

[5] = system: CD20 positive malignant lymphoma; experiment: Use experience of rituximab-containing chemotherapy, Hospital of Nagoya University; format: in vivo, human
Experimental: Cases of CD20 positive malignant lymphoma in which rituximab-containing chemotherapy was carried out in the Hospital of Nagoya University, School of Medicine are shown. The rituximab-containing chemotherapies were performed in 124 cases in about 5 years from […] to 2006, and in 36 cases (29%) among 124 cases, recurrence or relapse were observed. In 19 cases, about half of these cases, tissue biopsies were carried out again, and in 5 cases (26.3% among the cases subjected to rebiopsy), negative conversion of CD20 expression was confirmed. Prognoses of the cases where CD20 was negatively converted were extremely bad, and patients in all the cases died within 1 year after the confirmation of negative conversion.
In about 5 years from September 2001, CD20 positive malignant lymphoma cases subjected to chemotherapy including rituximab in this facility was 124 cases (FIG. 13), and 36 cases (29.0%) in the 124 cases were recurred or relapsed.

[6] = system: RRBL1 cells; experiment: Number of living RRBL1 cells treated with Aza and TSA, cultured with or without rituximab; format: cell-based, human; conditions: cultured for 2 days
From the text: RRBL1 cells (untreated group) and RRBL1 cells treated with Aza and TSA (treated group) were respectively cultured for 2 days in the absence of rituximab (●, ▪) or in the presence of rituximab (♦, ▴), and the number of living cells were compared (FIG. 8C).

[7] = system: Raji cells; experiment: Rituximab resistance test: number of living cells after culture with rituximab; format: cell-based; conditions: rituximab 500 mg/ml, 10% FCS, 37° C. for 2 days
Experimental: (§4) Rituximab ([…]) was added to a PRMI1640 culture solution containing 10% FCS and the solution was cultured at 37° C. for 2 days, and the number of living cells was measured. Further, Raji cells were cultured under the same conditions (control group). […] Thus, it was confirmed that the RRBL1 cells indicates rituximab resistance in vitro.

[8] = system: CD20 positive lymphoma; conditions: Non-patent document 10; cited from earlier work
[9] = system: RRBL1 cells; experiment: Rituximab resistance test: number of living cells after culture with rituximab; format: cell-based, human; conditions: rituximab 500 mg/ml, 10% FCS, 37° C. for 2 days
Experimental: as §4

[10] = RRBL1 cells, Aza on day 0, washed day 1, cultured to day 7
[11] = RRBL1 cells, washed after 24 hours, cultured further 2 days

Compound	DNMT1 expression [1]	CD20 mRNA expression, change with time [2, 10]	CD20 mRNA expression (RT-PCR) [2, 11]	induction of CD20 mRNA [2]	IRF4 and Pu.1 expression [3]	culturing time by which CD20 expression is induced ([4]; RRBL1) [days]	CD20 protein expression, change with time [4, 10]	day on which CD20 protein expression level reached peak [4, 10] [days]	CD20 protein expression (western blotting) [4, 11]	induction of CD20 protein [4]	cases with negative conversion (disappearance or decrease) of CD20 expression ([5]; 5 of 19 recurred/relapsed cases subjected to rebiopsy, FCM and immunostaining) [%]	cases recurred or relapsed ([5]; 36 of 124 cases given rituximab-containing chemotherapy, about 5 years from 2001) [%]	proliferation (number of living cells) in the presence of rituximab [6]	proliferation (number of living cells) [7]	patients showing rituximab resistance [8]	proliferation (number of living cells) [9]
Nc1ncn([C@H]2C[C@H](O)[C@@H](CO)O2)c(=O)n1 [Aza, 5-aza-2′-deoxycytidine]	significant decrease	the same tendency as the CD20 protein expression	increased	possible	tendency of temporal increase	1 to 7	increased from day 1	3	observed	possible	–	–	–	–	–	–
CC(/C=C/C(=O)NO)=C\[C@@H](C)C(=O)c1ccc(N(C)C)cc1 [TSA, Trichostatin A]	–	–	–	possible	–	–	–	–	–	possible	–	–	–	–	–	–
rituximab	–	–	–	–	–	–	–	–	–	–	26.3	29	significantly inhibited	significantly repressed	5 out of 48	repression of proliferation was not observed
